Test results: patent US20030158529A1 (priority 2001, published 2003)
Where two headings read alike, the source gives them in different places.

Columns and labels:
Format in all cases: cell-based, Staphylococcus aureus
S. aureus (MN8) = system: S. aureus (MN8)
S. aureus FRI-1169 = system: S. aureus FRI-1169
S. aureus FRI-1187 = system: S. aureus FRI-1187

Row | SMILES | CFU/mL (S. aureus (MN8)) | ELISA: TSST-1 ng/OD unit (S. aureus (MN8)) | Optical Density 600 nm (S. aureus (MN8)) | CFU/mL (S. aureus FRI-1169) | Optical Density 600 nm (S. aureus FRI-1169) | ELISA: TSST-1 ng/OD unit (S. aureus FRI-1169; S. aureus FRI-1169, 0.5 μg/mL) | Reduction of Toxin (%) (S. aureus (MN8)) | ELISA: TSST-1 ng/OD unit (S. aureus (MN8); S. aureus MN8, 0.01 μg/mL test compound, 24 hours) | Optical Density 600 nm (S. aureus (MN8); S. aureus MN8, 0.01 μg/mL test compound, 24 hours, 35° C.) | CFU/mL (S. aureus FRI-1187) | Optical Density 600 nm (S. aureus FRI-1187) | ELISA: TSST-1 ng/OD unit (S. aureus FRI-1187; S. aureus FRI-1187, 0.5 ug/mL) | ELISA: TSST-1 ng/OD unit (S. aureus (MN8); S. aureus MN8, 2 μg/mL test compound, 24 hours) | Optical Density 600 nm (S. aureus (MN8); S. aureus MN8, 2 μg/mL test compound, 24 hours, 35° C.)
1 | Oc1ccc(Cc2ccccc2)cc1 [4-Hydroxydiphenylmethane, 4-hydroxydiphenyl methane] | 1.1E+08 CFU/mL | 785 ng/OD unit | 0.581 | – | – | – | – | – | – | – | – | – | – | –
2 | Oc1cc(Cl)ccc1Oc1ccc(Cl)cc1Cl [Triclosan, triclosan] | 1.0E+08 CFU/mL | – | – | 1.50E+09 CFU/mL | 0.625 | 40 ng/OD unit | 88% | 129 ng/OD unit | 0.271 | 1.56E+09 CFU/mL | 0.156 | 95 ng/OD unit | – | –
3 | Oc1c(Cl)cc(Cl)c(Cl)c1Cc1c(O)c(Cl)cc(Cl)c1Cl [Hexachlorophene, hexachlorophene] | 3.7E+08 CFU/mL | – | – | – | – | – | 68% | – | – | – | – | – | 330 ng/OD unit | 0.350
